Source: the supplement of paper PMC10307832

Columns and labels:
Assay in all cases: relative viability (nuclei count vs DMSO), 5 days (fraction); higher = more cells survive
ABC-1 = system: ABC-1
Outline: (§1)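 Each reported value is a median over duplicate plates. It expresses relative viability: treated-well nuclei count divided by vehicle-well nuclei count. Lung cancer cell lines in 1536-well plates were dosed by pin tool a day after seeding, alone with one drug or with a fixed anchor-drug dose plus five library-drug doses (not always all listed) in √10 steps, and nuclei were counted after 5 days.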

CAL-12T = system: CAL-12T
Outline: as §1

ChaGo-K-1 = system: ChaGo-K-1
Outline: as §1

LC-2-ad = system: LC-2-ad
Outline: as §1

LOU-NH91 = system: LOU-NH91
Outline: as §1

LU99A = system: LU99A
Outline: as §1

NCI-H1395 = system: NCI-H1395
Outline: as §1

NCI-H1651 = system: NCI-H1651
Outline: as §1

NCI-H1755 = system: NCI-H1755
Outline: as §1

NCI-H1793 = system: NCI-H1793
Outline: as §1

NCI-H1944 = system: NCI-H1944
Outline: as §1

NCI-H2087 = system: NCI-H2087
Outline: as §1

NCI-H2170 = system: NCI-H2170
Outline: as §1

NCI-H2228 = system: NCI-H2228
Outline: as §1

NCI-H2405 = system: NCI-H2405
Outline: as §1

NCI-H3122 = system: NCI-H3122
Outline: as §1

NCI-H460 = system: NCI-H460
Outline: as §1

PC-3 [JPC-3] = system: PC-3 [JPC-3]
Outline: as §1

RERF-LC-KJ = system: RERF-LC-KJ
Outline: as §1

UMC-11 = system: UMC-11
Outline: as §1

Molecule `O=c1cc(N2CCOCC2)oc2c(-c3cccc4c3sc3ccccc34)cccc12` + CCNC(=O)c1noc(-c2cc(C(C)C)c(O)cc2O)c1-c1ccc(CN2CCOCC2)cc1 [Luminespib] (partner 0.01 µM) has a relative viability (ABC-1; first compound 0.01 µM) of 0.458, a relative viability (ABC-1; first compound 0.03162 µM) of 0.452 and a relative viability (ABC-1; first compound 0.1 µM) of 0.796. For the same molecule, the relative viability (ABC-1; first compound 0.3162 µM) was 0.501, the relative viability (ABC-1; first compound 1 µM) was 0.53 and the relative viability (CAL-12T; first compound 0.01 µM) was 0.723. For the same molecule, the relative viability (CAL-12T; first compound 0.03162 µM) was 0.621, the relative viability (CAL-12T; first compound 0.1 µM) was 0.292 and the relative viability (CAL-12T; first compound 0.3162 µM) was 0.31. The relative viability (CAL-12T; first compound 1 µM) was 0.527, the relative viability (ChaGo-K-1; first compound 0.01 µM) was 0.689 and the relative viability (ChaGo-K-1; first compound 0.03162 µM) was 0.682. The relative viability (ChaGo-K-1; first compound 0.1 µM) was 0.714, the relative viability (ChaGo-K-1; first compound 0.3162 µM) was 0.582 and the relative viability (ChaGo-K-1; first compound 1 µM) was 0.689. It also gave a relative viability (LC-2-ad; first compound 0.01 µM) of 1.04, a relative viability (LC-2-ad; first compound 0.03162 µM) of 1.12 and a relative viability (LC-2-ad; first compound 0.1 µM) of 0.978. It also gave a relative viability (LC-2-ad; first compound 0.3162 µM) of 1.03, a relative viability (LC-2-ad; first compound 1 µM) of 1.13 and a relative viability (LOU-NH91; first compound 0.01 µM) of 0.352. For the same molecule, the relative viability (LOU-NH91; first compound 0.03162 µM) was 0.318, the relative viability (LOU-NH91; first compound 0.1 µM) was 0.33 and the relative viability (LOU-NH91; first compound 0.3162 µM) was 0.373. For the same molecule, the relative viability (LOU-NH91; first compound 1 µM) was 0.36, the relative viability (LU99A; first compound 0.01 µM) was 0.266 and the relative viability (LU99A; first compound 0.03162 µM) was 0.23. It also gave a relative viability (LU99A; first compound 0.1 µM) of 0.232, a relative viability (LU99A; first compound 0.3162 µM) of 0.267 and a relative viability (LU99A; first compound 1 µM) of 0.183. It also gave a relative viability (NCI-H1395; first compound 0.01 µM) of 0.726, a relative viability (NCI-H1395; first compound 0.03162 µM) of 0.75 and a relative viability (NCI-H1395; first compound 0.1 µM) of 0.683. It also gave a relative viability (NCI-H1395; first compound 0.3162 µM) of 0.622, a relative viability (NCI-H1395; first compound 1 µM) of 0.532 and a relative viability (NCI-H1651; first compound 0.01 µM) of 0.777. The relative viability (NCI-H1651; first compound 0.03162 µM) was 0.736, the relative viability (NCI-H1651; first compound 0.1 µM) was 0.824 and the relative viability (NCI-H1651; first compound 0.3162 µM) was 0.712. For the same molecule, the relative viability (NCI-H1651; first compound 1 µM) was 0.807, the relative viability (NCI-H1755; first compound 0.01 µM) was 0.501 and the relative viability (NCI-H1755; first compound 0.03162 µM) was 0.265. For the same molecule, the relative viability (NCI-H1755; first compound 0.1 µM) was 0.496, the relative viability (NCI-H1755; first compound 0.3162 µM) was 0.419 and the relative viability (NCI-H1755; first compound 1 µM) was 0.563. It also gave a relative viability (NCI-H1793; first compound 0.01 µM) of 0.159, a relative viability (NCI-H1793; first compound 0.1 µM) of 0.173 and a relative viability (NCI-H1793; first compound 0.3162 µM) of 0.134. For the same molecule, the relative viability (NCI-H1793; first compound 1 µM) was 0.18, the relative viability (NCI-H1944; first compound 0.01 µM) was 0.785 and the relative viability (NCI-H1944; first compound 0.03162 µM) was 0.758. It also gave a relative viability (NCI-H1944; first compound 0.1 µM) of 0.687, a relative viability (NCI-H1944; first compound 0.3162 µM) of 0.728 and a relative viability (NCI-H1944; first compound 1 µM) of 0.749. The relative viability (NCI-H2087; first compound 0.01 µM) was 0.148, the relative viability (NCI-H2087; first compound 0.03162 µM) was 0.146 and the relative viability (NCI-H2087; first compound 0.1 µM) was 0.173. The relative viability (NCI-H2087; first compound 0.3162 µM) was 0.237, the relative viability (NCI-H2087; first compound 1 µM) was 0.169 and the relative viability (NCI-H2170; first compound 0.01 µM) was 0.445. The relative viability (NCI-H2170; first compound 0.03162 µM) was 0.668, the relative viability (NCI-H2170; first compound 0.1 µM) was 0.654 and the relative viability (NCI-H2170; first compound 0.3162 µM) was 0.548. For the same molecule, the relative viability (NCI-H2170; first compound 1 µM) was 0.744, the relative viability (NCI-H2228; first compound 0.01 µM) was 0.151 and the relative viability (NCI-H2228; first compound 0.03162 µM) was 0.112. For the same molecule, the relative viability (NCI-H2228; first compound 0.1 µM) was 0.125, the relative viability (NCI-H2228; first compound 0.3162 µM) was 0.191 and the relative viability (NCI-H2228; first compound 1 µM) was 0.133. The relative viability (NCI-H2405; first compound 0.01 µM) was 0.712, the relative viability (NCI-H2405; first compound 0.03162 µM) was 0.571 and the relative viability (NCI-H2405; first compound 0.1 µM) was 0.722. For the same molecule, the relative viability (NCI-H2405; first compound 0.3162 µM) was 0.717, the relative viability (NCI-H2405; first compound 1 µM) was 0.681 and the relative viability (NCI-H3122; first compound 0.01 µM) was 0.073. The relative viability (NCI-H3122; first compound 0.03162 µM) was 0.101, the relative viability (NCI-H3122; first compound 0.1 µM) was 0.0916 and the relative viability (NCI-H3122; first compound 0.3162 µM) was 0.0864. For the same molecule, the relative viability (NCI-H3122; first compound 1 µM) was 0.0779, the relative viability (NCI-H460; first compound 0.01 µM) was 0.037 and the relative viability (NCI-H460; first compound 0.03162 µM) was 0.0402. For the same molecule, the relative viability (NCI-H460; first compound 0.1 µM) was 0.0368, the relative viability (NCI-H460; first compound 0.3162 µM) was 0.035 and the relative viability (NCI-H460; first compound 1 µM) was 0.0452. The relative viability (PC-3 [JPC-3]; first compound 0.01 µM) was 0.711, the relative viability (PC-3 [JPC-3]; first compound 0.03162 µM) was 0.694 and the relative viability (PC-3 [JPC-3]; first compound 0.1 µM) was 0.689. The relative viability (PC-3 [JPC-3]; first compound 0.3162 µM) was 0.695, the relative viability (PC-3 [JPC-3]; first compound 1 µM) was 0.634 and the relative viability (RERF-LC-KJ; first compound 0.01 µM) was 1.31. For the same molecule, the relative viability (RERF-LC-KJ; first compound 0.03162 µM) was 1.22, the relative viability (RERF-LC-KJ; first compound 0.1 µM) was 1.48 and the relative viability (RERF-LC-KJ; first compound 0.3162 µM) was 1.07. For the same molecule, the relative viability (RERF-LC-KJ; first compound 1 µM) was 1.21, the relative viability (UMC-11; first compound 0.01 µM) was 0.971 and the relative viability (UMC-11; first compound 0.03162 µM) was 0.997. The relative viability (UMC-11; first compound 0.1 µM) was 1.12, the relative viability (UMC-11; first compound 0.3162 µM) was 0.986 and the relative viability (UMC-11; first compound 1 µM) was 0.982.
